16 compounds from US8865894B2, “Oxazolidin-2-one compounds and uses thereof” (Novartis AG, priority 2012, dated 2014) can be followed below.

Molecules are shown by their SMILES.

Experiment [1] concerns the target T1, human PI3Kβ (Homo sapiens, UniProt P42338).
T1 construct: made in house
As to the kind of experiment: Biochemical PI3Kbeta (KinaseGlo luminescent kinase assay). Conditions: 1 μM ATP, mean of n measurements, read-out: PI3Kb/ IC50. As to the method:
(§1) Test compounds were dissolved in DMSO (10 mM) and transferred into 1.4 mL flat bottom or V-shaped Matrix tubes carrying a unique 2D matrix chip by individual Novartis compound hubs. The numbers of these chips were distinctively linked to Novartis Pharma Numbers. The stock solutions were stored at −20° C. if not used immediately. For the test procedure the vials were defrosted and identified by a scanner whereby a working sheet was generated that guided the subsequent working steps.
(§2) Compounds were either manually diluted in DMSO for individual experiments (96 wells enabling 10 cpds at 8 (single points) concentrations) as described in or prepared as described below if tested for profiling in 384-wells. This format enabled the assay of maximally 40 individual test compounds at 8 concentrations (single points) including 4 reference compounds. The dilution protocol included the production of “pre-dilution plates”, “master plates” and “assay plates”.
(§3) 96 polypropylene well plates were used as pre-dilution plates. A total of 4 pre-dilution plates were prepared including 10 test compounds each on the plate positions A1-A10, one standard compound at A11 and one DMSO control at A12. Programs have been written to run these pipetting steps on the HamiltonSTAR robots.
(§4) Identical “assay plates” were then prepared by pipetting 50 nL each of compound dilutions of the “master plates” into 384-well “assay plates”. The compounds were mixed with 4.5 μL of assays components plus 4.5 μL enzyme corresponding to a 1:181 dilution enabling the final concentration of 10, 3.0, 1.0, 0.3, 0.1, 0.03, 0.01 and 0.003 μM, respectively. The preparation of the “master plates” was handled by the Matrix PlateMate Plus robot and replication of “assay plates” by the HummingBird robot.
Catalytically active human PI3Kα, PI3Kβ, PI3Kδ, and mTOR were cloned, expressed and purified as described (Maira S M, Stauffer F, Brueggen J, Furet P, Schnell C, Fritsch C, Brachmann S, Chène P, de Pover A, Schoemaker K, Fabbro D, Gabriel D, Simonen M, Murphy L, Finan P, Sellers W, García-Echeverría C (2008), Mol Cancer Ther. 7:1851-63 and Maira S M, Pecchi S, Brueggen J, Huh K, Schnell C, Fritsch C, Nagel T, Wiesmann M, Brachmann S, Dorsch M, Chène P, Schoemaker K, De Pover A, Menezes D, Fabbro D, Sellers W, García-Echeverría C, Voliva C F (2011), Mol. Cancer Ther. accepted).
The luminescence-based ATP detection reagent KinaseGlo was obtained from Promega, (Cat. No. V6714, Lot No. 236161) through Catalys, Wallisellen, Switzerland. (L-alpha-phosphatidylinositol (PI), Liver, Bovine) were obtained from Avanti Polar Lipid (Cat. No. 840042C, Lot#LPI-274), Phosphatidylinositol-4,5-bisphosphate (PIP(4,5)2 (Avanti, Cat. No. 840046×) or L-α-phosphatidylinositol (PI) was obtained from Avanti Polar Lipid (Cat. No. 840042C, Lot#LPI-274). L-α-Phosphatidylserine (PS) was from Avanti Polar Lipid (Cat. No. 840032C), n-OctylGlucoside Avanti Polar Lipid (Cat. No. 10634425001). Luminescence is a well established readout to determine ATP concentrations and can thus be used to follow the activity of many kinases regardless of their substrate. The Kinase Glo Luminescent Kinase Assay (Promega, Madison/Wis., USA) is a homogeneous HTS method of measuring kinase activity by quantifying the amount of ATP remaining in solution following a kinase reaction.
50 nL of compound dilutions were dispensed onto black 384-well low volume Non Binding Styrene (NBS) plates (Costar Cat. No. NBS#3676) as described in section 8.2. L-α-phosphatidylinositol (PI), provided as 10 mg/ml solution in methanol, was transferred into a glass tube and dried under nitrogen beam. It was then resuspended in 3% OctylGlucoside by vortexing and stored at 4° C. 5 μL of a mix of PI/OG with the PI3Ka and Pi3Kb subtypes were added. Kinase reactions were started by addition of 5 μl of ATP-mix containing in a final volume 10 μL 10 mM TRIS-HCl pH 7.5, 3 mM MgCl2, 50 mM NaCl, 0.05% CHAPS, 1 mM DTT and 1 μM ATP, and occurred at room temperature.
On the technique in general: In Kinase-Glo more light means more ATP remaining.

Experiment [2] has as its target PI3Kgamma (Homo sapiens, UniProt P48736). As to the kind of experiment: Biochemical PI3Kgamma (TR-FRET Adapta Universal Kinase Assay). Conditions: mean of n measurements, read-out: PIK3g/ IC50. As to the method: as §1, §2, §3
100 μL of individual compound dilutions including standard compound and controls of the 4 “pre-dilution plates” were transferred into a 384 “master plate” including the following concentrations 1,820, 564, 182, 54.6, 18.2, 5.46, 1.82 and 0.546 μM, respectively in 90% DMSO.
as §4
The TR-FRET Adapta™ Universal Kinase Assay Kit was purchased from Invitrogen Corporation (Carlsbad/CA, USA) (Cat. No. PV5099). The kit contains the following reagents: Adapta Eu-anti-ADP Antibody (Europium labeled anti-ADP antibody in HEPES buffered saline, Cat. No. PV5097), Alexa Fluor® 647-labeled ADP tracer (Alexa Fluor® 647-labeled ADP tracer in HEPES buffered saline, Cat. No. PV5098), proprietary TR-FRET dilution buffer pH 7.5 (Cat. No. PV3574).
PIK3CD substrate Phosphatidylinositol was obtained from Invitrogen (vesicules consisting of 2 mM PI in 50 mM HEPES pH7.5; Cat. No. PV5371). PIK3CG substrate Phosphatidylinositol-4,5-bisphosphate (PIP(4,5)2 was obtained from Invitrogen (PIP2:PS large unilamellar vesicules consisting of 1 mM PIP2: 19 mM PS in 50 mM HEPES pH7.5, 3 mM MgCl2, 1 mM EGTA; Cat. No. PV5100).
Time-Resolved Fluorescence Resonance Energy Transfer (TR-FRET) is a technology based on energy transfer between two adjacent dyes, from an excited electron in one dye (the donor) to an electron of an adjacent dye (the acceptor) through resonance, then released as a photon. This energy transfer is detected by an increase in the fluorescence emission of the acceptor, and a decrease in the fluorescence emission of the donor. TR-FRET assays for protein kinases use a long-lifetime lanthanide Terbium or Europium chelates as the donor species which overcome interference from compound autofluorescence or light scatter from precipitated compounds, by introducing a delay after excitation by a flashlamp excitation source. Results are often expressed as a ratio of the intensities of the acceptor and donor fluorophores. The ratiometric nature of such a value corrects for differences in assay volumes between wells, as well as corrects for quenching effects due to colored compounds. The Adapta™ assay can be divided into two phases: a kinase reaction phase and an ADP detection phase. […]
For orientation: Time-resolved FRET reads energy transfer from a long-lived donor to a nearby acceptor.

T1 sequence (P42338 2-1070 limits assumed): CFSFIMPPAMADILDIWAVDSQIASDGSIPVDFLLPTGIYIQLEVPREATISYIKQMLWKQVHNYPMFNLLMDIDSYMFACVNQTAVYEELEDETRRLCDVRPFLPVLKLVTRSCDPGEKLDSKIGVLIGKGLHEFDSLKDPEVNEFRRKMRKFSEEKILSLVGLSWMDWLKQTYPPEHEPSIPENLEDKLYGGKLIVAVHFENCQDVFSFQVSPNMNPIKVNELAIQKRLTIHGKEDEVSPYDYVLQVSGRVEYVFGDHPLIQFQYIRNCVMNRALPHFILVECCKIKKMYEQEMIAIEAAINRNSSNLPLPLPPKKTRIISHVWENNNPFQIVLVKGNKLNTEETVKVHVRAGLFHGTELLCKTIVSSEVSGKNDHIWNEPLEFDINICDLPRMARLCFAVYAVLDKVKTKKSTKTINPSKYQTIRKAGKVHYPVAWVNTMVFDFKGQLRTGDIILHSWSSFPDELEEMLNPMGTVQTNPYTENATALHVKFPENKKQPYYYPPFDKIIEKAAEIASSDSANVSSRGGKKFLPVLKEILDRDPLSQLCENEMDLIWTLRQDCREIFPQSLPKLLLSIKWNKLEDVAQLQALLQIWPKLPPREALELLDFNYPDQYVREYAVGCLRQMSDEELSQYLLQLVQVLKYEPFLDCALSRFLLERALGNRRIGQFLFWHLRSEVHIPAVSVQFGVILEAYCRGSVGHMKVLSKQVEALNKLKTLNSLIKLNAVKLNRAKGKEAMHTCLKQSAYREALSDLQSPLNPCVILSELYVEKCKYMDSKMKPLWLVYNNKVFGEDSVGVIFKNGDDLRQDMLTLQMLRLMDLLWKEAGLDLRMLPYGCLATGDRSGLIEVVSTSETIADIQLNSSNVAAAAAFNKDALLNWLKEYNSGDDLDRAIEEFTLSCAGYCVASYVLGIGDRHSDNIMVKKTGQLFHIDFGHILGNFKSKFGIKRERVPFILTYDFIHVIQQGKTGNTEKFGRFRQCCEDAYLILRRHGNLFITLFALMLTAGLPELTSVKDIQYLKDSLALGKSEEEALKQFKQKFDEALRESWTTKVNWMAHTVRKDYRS
PI3Kgamma, sequence (P48736 whole entry, species assumed): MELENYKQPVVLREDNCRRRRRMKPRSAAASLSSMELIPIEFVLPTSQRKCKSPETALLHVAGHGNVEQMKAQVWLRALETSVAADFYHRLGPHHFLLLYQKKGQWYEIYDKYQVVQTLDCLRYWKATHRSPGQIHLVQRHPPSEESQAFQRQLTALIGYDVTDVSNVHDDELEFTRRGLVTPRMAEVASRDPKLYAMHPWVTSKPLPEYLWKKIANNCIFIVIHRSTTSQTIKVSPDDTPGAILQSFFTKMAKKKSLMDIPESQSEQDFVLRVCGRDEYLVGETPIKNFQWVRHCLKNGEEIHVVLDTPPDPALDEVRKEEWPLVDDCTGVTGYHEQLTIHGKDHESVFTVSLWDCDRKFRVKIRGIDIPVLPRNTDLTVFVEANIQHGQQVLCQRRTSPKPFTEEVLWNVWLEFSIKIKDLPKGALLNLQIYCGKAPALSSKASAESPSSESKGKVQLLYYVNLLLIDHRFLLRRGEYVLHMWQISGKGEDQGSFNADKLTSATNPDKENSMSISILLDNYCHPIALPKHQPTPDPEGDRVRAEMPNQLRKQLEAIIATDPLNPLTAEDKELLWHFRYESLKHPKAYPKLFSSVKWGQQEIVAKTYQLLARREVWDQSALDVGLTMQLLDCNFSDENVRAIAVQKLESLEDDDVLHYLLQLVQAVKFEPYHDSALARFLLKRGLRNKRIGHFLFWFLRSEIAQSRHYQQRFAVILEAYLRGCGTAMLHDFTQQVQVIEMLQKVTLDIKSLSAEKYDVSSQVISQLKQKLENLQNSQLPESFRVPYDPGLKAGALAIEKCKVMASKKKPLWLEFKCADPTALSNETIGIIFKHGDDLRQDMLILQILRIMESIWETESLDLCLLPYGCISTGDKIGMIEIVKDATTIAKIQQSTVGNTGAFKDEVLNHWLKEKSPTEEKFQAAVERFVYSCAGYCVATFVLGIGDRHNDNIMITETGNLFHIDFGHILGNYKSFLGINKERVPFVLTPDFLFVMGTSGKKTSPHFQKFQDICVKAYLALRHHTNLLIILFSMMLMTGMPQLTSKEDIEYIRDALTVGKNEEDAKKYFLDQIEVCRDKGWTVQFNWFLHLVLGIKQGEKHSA

`C[C@H]1CN(c2cc(-c3cnc(N)nc3C(F)(F)F)nc(N3CCOCC3)n2)C(=O)O1` [Example 16, (S)-3-(2′-Amino-2-morpholin-4-yl-4′-trifluoromethyl-[4,5′]bipyrimidinyl-6-yl)-5-methyl-oxazolidin-2-one]: the IC50 in experiment [1] came out at 20 nM; in experiment [2], 770 nM.
Take `C[C@H]1[C@@H](CCO)OC(=O)N1c1cc(-c2cnc(N)nc2C(F)(F)F)nc(N2CCOCC2)n1` [Example 23, (4S,5R)-3-(2′-Amino-2-morpholino-4′-(trifluoromethyl)-[4,5′-bipyrimidin]-6-yl)-5-(2-hydroxyethyl)-4-methyloxazolidin-2-one]: the IC50 was 11 nM in experiment [1] and 207 nM in experiment [2].
The corresponding values for `Nc1ncc(-c2cc(N3C[C@@H](CO)OC3=O)nc(N3CCOCC3)n2)c(C(F)(F)F)n1` [Example 14, (S)-3-(2′-Amino-2-morpholin-4-yl-4′-trifluoromethyl-[4,5′]bipyrimidinyl-6-yl)-5-hydroxymethyl-oxazolidin-2-one] are 18 nM and 1230 nM.
Taken in the same sequence, the figures for `C[C@H]1C(CC(C)(C)O)OC(=O)N1c1cc(-c2cnc(N)nc2C(F)(F)F)nc(N2CCOCC2)n1` (mixture of isomers) [Example 26, (4S,5R)- and (4S,5S)-3-(2′-amino-2-morpholino-4′-(trifluoromethyl)-[4,5′-bipyrimidin]-6-yl)-5-(2-hydroxy-2-methylpropyl)-4-methyloxazolidin-2-one] were 124 nM and 290 nM.
The corresponding values for `C[C@H]1COC(=O)N1c1cc(-c2cnc(N)nc2C(F)(F)F)nc(N2CCOCC2)n1` [Example 1, (S)-3-(2′-Amino-2-morpholin-4-yl-4′-trifluoromethyl-[4,5′]bipyrimidinyl-6-yl)-4-methyl-oxazolidin-2-one] are 6 nM and 276 nM.
For the compound `[2H]C1([2H])OC([2H])([2H])C([2H])([2H])N(c2nc(-c3cnc(N)nc3C(F)(F)F)cc(N3C(=O)OC[C@@H]3C)n2)C1([2H])[2H]` [Example 17, (S)-3-(2′-amino-2-D8-morpholino-4′-(trifluoromethyl)-[4,5′-bipyrimidin]-6-yl)-4-methyloxazolidin-2-one], the IC50 in experiment [1] is 7 nM; in experiment [2], 328 nM.
Taken in the same sequence, the figures for `C[C@@H](O)C[C@H]1OC(=O)N(c2cc(-c3cnc(N)nc3C(F)(F)F)nc(N3CCOCC3)n2)[C@H]1C` (single isomer, unassigned) [Example 24] were 16 nM and 540 nM.
Taken in the same sequence, the figures for `Nc1ncc(-c2cc(N3CCOC3=O)nc(N3CCOCC3)n2)c(C(F)(F)F)n1` [Example 11, 3-(2′-Amino-2-morpholin-4-yl-4′-trifluoromethyl-[4,5′]bipyrimidinyl-6-yl)-oxazolidin-2-one, reference compound] were 12 nM and 998 nM.
The corresponding values for `C[C@H]1COCCN1c1nc(-c2cnc(N)nc2C(F)(F)F)cc(N2C(=O)OC[C@@H]2C)n1` [Example 13, (S)-3-[2′-Amino-2-((S)-3-methyl-morpholin-4-yl)-4′-trifluoromethyl-[4,5′]bipyrimidinyl-6-yl]-4-methyl-oxazolidin-2-one] are 146 nM and 386 nM.
Consider `C[C@H]1[C@H](CO)OC(=O)N1c1cc(-c2cnc(N)nc2C(F)(F)F)nc(N2CCOCC2)n1` [Example 15, (4S,5R)-3-(2′-Amino-2-morpholin-4-yl-4′-trifluoromethyl-[4,5′]bipyrimidinyl-6-yl)-5-hydroxymethyl-4-methyl-oxazolidin-2-one], for which the IC50 in experiment [1] worked out at 21 nM; in experiment [2] it was 338 nM.
Taken in the same sequence, the figures for `CC1(CO)COC(=O)N1c1cc(-c2cnc(N)nc2C(F)(F)F)nc(N2CCOCC2)n1` (racemic) [Example 3, 3-(2′-amino-2-morpholino-4′-(trifluoromethyl)-4,5′-bipyrimidin-6-yl)-4-(hydroxymethyl)-4-methyloxazolidin-2-one] were 18 nM and 516 nM.
The corresponding values for `CC1(C)OC(=O)N(c2cc(-c3cnc(N)nc3C(F)(F)F)nc(N3CCOCC3)n2)[C@H]1CO` [Example 2, (S)-3-(2′-Amino-2-morpholin-4-yl-4′-trifluoromethyl-[4,5′]bipyrimidinyl-6-yl)-4-hydroxymethyl-5,5-dimethyl-oxazolidin-2-one] are 20 nM and 348 nM.
On to `Nc1ncc(-c2cc(N3C(=O)OC[C@@H]3CCO)nc(N3CCOCC3)n2)c(C(F)(F)F)n1` [Example 9, (S)-3-(2′-Amino-2-morpholin-4-yl-4′-trifluoromethyl-[4,5′]bipyrimidinyl-6-yl)-4-(2-hydroxy-ethyl)-oxazolidin-2-one], for which the IC50 was 41 nM in experiment [1] and 1130 nM in experiment [2].
Taken in the same sequence, the figures for `Nc1ncc(-c2cc(N3C(=O)O[C@H]4CCCC[C@@H]43)nc(N3CCOCC3)n2)c(C(F)(F)F)n1` [Example 4, (3aS,7aS)-3-(2′-Amino-2-morpholin-4-yl-4′-trifluoromethyl-[4,5′]bipyrimidinyl-6-yl)-hexahydro-benzooxazol-2-one] were 7 nM and 238 nM.
Taken in the same sequence, the figures for `Nc1ncc(-c2cc(N3C(=O)O[C@H]4COC[C@H]43)nc(N3CCOCC3)n2)c(C(F)(F)F)n1` [Example 21, (3aR,6aR)-3-(2′-amino-2-morpholino-4′-(trifluoromethyl)-[4,5′-bipyrimidin]-6-yl)-tetrahydrofuro[3,4-d]oxazol-2(3H)-one] were 35 nM and 370 nM.
The corresponding values for `Nc1ncc(-c2cc(N3C(=O)OC4C(O)CCC43)nc(N3CCOCC3)n2)c(C(F)(F)F)n1` (single isomer, unassigned) [Example 22A] are 86 nM and 110 nM.
